From US6800635B2, “Crystalline form II of cabergoline” (Pharmacia Italia, S.p.A., priority 2000, dated 2004)

Assay: Relative thermodynamic stability of cabergoline polymorphs (slurry of a mixture of forms I and II)
Type: physicochemical
Details: range of temperature between −70 and +30° C.; compared with Form I
Procedure: It can be readily prepared starting from crude material by crystallization from several solvents at low temperatures. Alternatively it can be prepared by slurry of a mixture of forms I and II in a solvent at a temperature below 30° C. The importance of cabergoline form II rests primarily (but not exclusively) in its thermodynamic stability.
Crystalline Form II cabergoline may be also prepared by subjecting a mixture of crystal forms I and II of cabergoline to a slurry procedure at a temperature below 30° C. Preferably, the mixture is stirred at room temperature in organic aliphatic linear C4-7 alkanes or C4-C5 ethers such as n-hexane or diethyl ether. In the mixture, the Form I/Form II ratio is preferably from 10:1 to 1:10. The resultant crystals were collected as above described.
A mixture of 200 mg of form I and of an equal amount of form II was added to 50 ml of n-hexane at 25° C. The suspension was stirred for about 12 hours, then filtered using a glass filter under vacuum. The collected crystals were identified by analytical methods as pure form II. The analytical data were the same of example 1.
A mixture of 50 mg of form I and of 350 mg of form II was added to 5 ml of diethyl ether at −5° C. The suspension was stirred for about 12 hours, then filtered using a glass filter under vacuum. The collected crystals were identified by analytical methods as pure form II. […]

thermodynamic stability of the polymorph: thermodynamically most stable polymorph
SMILES: C=CCN1C[C@H](C(=O)N(CCCN(C)C)C(=O)NCC)C[C@@H]2c3cccc4[nH]cc(c34)C[C@H]21 [Form II, 1((6-allylergolin-8Beta-yl)-carbonyl)-1-(3-dimethylaminopropyl)-3-ethylurea]
